# Reference: patent US12472226B2, “Cell-permeable peptide” (priority 2019, dated 2025)
# Non-standard residues stand in square brackets, D forms with d. No end group written: not given here. *: point of attachment. FITC = O=C1OC2(c3ccc(O)cc3Oc3cc(O)ccc32)c2ccc(NC(=S)*)cc21; Ahx = NCCCCCC(=O)O
# Tests used:
# [1] = molecular target: T1, CD13 (Homo sapiens, UniProt P15144); assay: Analytical test of binding protein by immunoprecipitation; conditions: HT-1080 cells, 80 μg/400 μL, 4° C., 2 hours
# T1 construct: endogenous in cells; host or cells: HT-1080 cells
# Procedure: Example 2 (80 μg/400 μL) reacted to HT-1080 cells (40 million cells) at 4° C. for 2 hours. The cells were then washed with PBS, and centrifuged. The centrifuged cells were dissolved in 1,000 μL of IP Lysis/Wash buffer (Thermo Fisher Scientific) with Halt Protease & Phosphatase inhibitor Single-Use Cocktail, ETDA-Free (Thermo Fisher Scientific) (10 μL) at 4° C. for 5 minutes. It was centrifuged at 4° C. for 10 minutes and the supernatant was collected. The supernatant was adjusted to be 1 mg in amount of protein and 80 μL of A/G agarose was added to it. The mixture was stirred at 4° C. for 1 hour and then centrifuged for 1 minute. Thus, a pre-treatment solution was obtained. 10 μg of IgG Fraction Monoclonal Mouse Anti-Fluorescein (FITC) (Jackson ImmunoResearch) or 10 μg of Mouse IgG Isotype Control (Thermo Fisher Scientific) was each added to the pre-treatment solution (1 mg/600 μL), and the mixtures were shaken at 4° C. overnight. Subsequently, 20 μL of A/G agarose was added and the mixtures were shaken at 4° C. for 2 hours. The mixtures were washed three times with the wash buffer described above and 20 μL of 2×Non-reducing Lane Marker Sample Buffer (Thermo Fisher Scientific) was added to the A/G agaroses. […]
# The 10% solution used in immunoprecipitation was loaded to the left lane of FIG. 3. […] CD13 was not detected on the right lane, but CD 13 was detected on the center lane.
# [2] = system: HT-1080 cells tumor; assay: Growth-inhibition and apoptosis of cancer cells in tumor-bearing mice; assay type: in vivo, BALB/c nude mouse; conditions: 10 mg/kg intraperitoneally every 3 days
# Procedure: HT-1080 cells (1×10^7 cells/200 μL) were subcutaneously implanted into the back of 5 week-old BALB/c nude mouse (CHARLES RIVER LABORATORIES JAPAN, INC.). A tumor after the implantation was confirmed to reach 30 to 60 mm^3, and then they were subjected to the following tests.
# Example 2 was dissolved in the sterile water and adjusted to be 200 μg/200 μL by the addition of 2-time concentrated α-MEM (not containing glutamine or an antibiotic). It was intraperitoneally administered to tumor-bearing mice at 10 mg/kg every 3 days. In the control administration group, 200 μL of 1-time concentrated α-MEM was intraperitoneally administered to tumor-bearing mice every 3 days. The mice were weighed on DRETEC weighing scale (DRETEC CO., Ltd., Japan) and the tumor size (estimation volume (shortest diameter×longer diameter×height×pi/6 mm^3)) was measured with a vernier caliper (maximum: 150 mm, minimum: 0.05 mm) (MITUTOYO, Japan) every 3 days.
# FIG. 6 is a graph illustrating the transitions of tumor size in the Example 2 and control administration group (N=6). The vertical axis represents the average value of tumor size±standard deviation (SD), and the horizontal axis represents the days after administration. […] In the control administration group, the tumor size on day 24 was more than 1,500 mm^3. On the other hand, the effect of suppressing tumor growth was confirmed as the tumor size was about 600 mm^3 in the Example 2 administration.
# [3] = system: A549 cells; assay: Test on nuclear transport (confocal Z scan, DAPI); assay type: cell-based, human; conditions: 50μ/mL, 23 days
# Text: (§1) Human fibrosarcoma-derived HT-1080 cells (HT-1080 cells, JCRB cell bank) were used as cancer cells in the test for monitoring changes in mitochondrial membrane potential. HT-1080 cells, human osteosarcoma cell line Hos cells (Hos cells, JCRB cell bank), human histiocytic lymphoma/macrophage U937 cells (U937 cells, JCRB cell bank), human myeloid leukemia HL-60 cells (HL-60 cells, JCRB cell bank), acute monocytic leukemia THP-1 cells (THP-1 cells, JCRB cell bank), human alveolar basal epithelial adenocarcinoma cell A549 cells (A549 cells, Cell Resource Center for Biomedical Research, Institute of Development, Aging and Cancer, Tohoku University), human pancreatic carcinoma cells (MIA Paca 2 cells, Cell Resource Center for Biomedical Research, Institute of Development, Aging and Cancer, Tohoku University) and well differentiated human liver carcinoma-derived cell line HuH7 cells (HuH7 cells, Cell Resource Center for Biomedical Research, Institute of Development, Aging and Cancer, Tohoku University) were used as cancer cells in an in vitro cell-death induction test of cancer cells and a nuclear transport test of Example 2. Normal human gingival fibroblast cells Gin-1 (Gin-1 cells, DS Pharma Biomedical) were used as a control. The above-described cells were each inoculated into a 96-well culture plate (Falcon) at 5,000 cells/[…] and subjected to the following tests.
# (§2) Similarly, 50μ/mL of Example 2 was added to the A549, MIA Paca2 and HuH7 cells. The cells were cultured for 23 days and then scanned by the Z scan technique using the confocal laser scanning microscope LSM800 after dyed with DAPI. FIG. 5B is each photograph of XY, XZ and YZ cross sections that were merged with Example 2 (green) and DAPI (blue) in the variety of cancer cells. As a result, the color of the images merged with Example 2 and DAPI dye took on light blue.
# [4] = system: MIA Paca2 cells; assay: Test on nuclear transport (confocal Z scan, DAPI); assay type: cell-based, human; conditions: 50μ/mL, 23 days
# Text: as §1, §2
# [5] = system: HuH7 cells; assay: Test on nuclear transport (confocal Z scan, DAPI); assay type: cell-based, human; conditions: 50μ/mL, 23 days
# Text: as §1, §2
# [6] = system: HT-1080 cells; assay: Test on nuclear transport (confocal, DAPI); assay type: cell-based, human; conditions: 50 μg/mL; for intracellular localization: HT-1080 cells
# Text: as §1
# The cells were cultured in 200 μL of serum-supplemented medium (α-MEM+10% FBS) to be 50 μg/mL at the final concentration of Example 2 for 3 or 9 days. The cell-death was not detected in the culture on day 3. On the contrary, since the cell-death was detected in the culture on day 9, the day 9 culture as described above was used for the tests. The above each cell was separated and transferred to a Cellview glass bottom dish (35×10 mm) (Greiner). The cells on day 3 were fixed with 10% formalin-ethanol and then dyed with DAPI. The cells on day 9 were dyed with DAPI without fixation.
# FIG. 4 is the photographs of Example 2 (green), DAPI (blue), overlay images of Example 2 (green) and DAPI (blue) and differential interference image on the HT-1080 cells on day 3 or 9.
# T1 sequence (P15144 whole entry): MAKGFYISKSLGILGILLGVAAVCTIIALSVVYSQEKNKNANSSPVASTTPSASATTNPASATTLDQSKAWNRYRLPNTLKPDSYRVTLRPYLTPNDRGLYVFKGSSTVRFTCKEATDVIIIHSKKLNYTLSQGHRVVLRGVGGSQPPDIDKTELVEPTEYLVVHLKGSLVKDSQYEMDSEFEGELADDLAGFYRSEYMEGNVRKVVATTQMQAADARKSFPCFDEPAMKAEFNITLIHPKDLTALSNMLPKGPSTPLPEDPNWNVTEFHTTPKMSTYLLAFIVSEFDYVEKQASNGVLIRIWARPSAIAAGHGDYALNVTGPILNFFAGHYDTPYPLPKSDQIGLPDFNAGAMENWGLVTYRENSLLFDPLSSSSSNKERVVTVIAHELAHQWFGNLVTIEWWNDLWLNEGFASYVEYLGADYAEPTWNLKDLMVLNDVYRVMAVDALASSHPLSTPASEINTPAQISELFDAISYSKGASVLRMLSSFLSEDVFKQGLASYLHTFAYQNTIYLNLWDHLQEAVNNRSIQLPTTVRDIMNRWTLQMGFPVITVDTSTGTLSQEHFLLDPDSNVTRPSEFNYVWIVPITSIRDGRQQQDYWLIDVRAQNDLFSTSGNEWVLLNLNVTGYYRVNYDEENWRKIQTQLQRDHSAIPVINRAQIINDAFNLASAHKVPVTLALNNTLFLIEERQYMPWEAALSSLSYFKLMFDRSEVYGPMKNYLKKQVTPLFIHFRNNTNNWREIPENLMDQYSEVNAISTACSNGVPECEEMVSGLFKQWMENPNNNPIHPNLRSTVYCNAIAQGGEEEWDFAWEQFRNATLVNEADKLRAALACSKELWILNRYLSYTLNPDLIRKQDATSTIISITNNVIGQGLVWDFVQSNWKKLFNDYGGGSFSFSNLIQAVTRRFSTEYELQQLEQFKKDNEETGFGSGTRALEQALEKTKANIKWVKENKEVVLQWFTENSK
substance,measurement,setting,value
"Example 2: peptide of SEQ ID NO: 1 labeled with FITC, bound via an Ahx linker at the N-terminus ({FITC}-[Ahx]KDNRGNLLQCVCTGNGRGEWKC; cysteine pairing not given here)","binding to CD13 (co-immunoprecipitation with anti-FITC, Western blotting)",[1],proved to bind to CD13 on a cell membrane specifically
same,growth inhibition of the tumor compared with the control administration group,[2]; between days 12 and 24,significant difference at a level of 1%
same,tumor size,"[2]; day 24, N=6",about 600 mm^3
same,tumor shrinkage,[2]; to the 33th day,tendency to shrink the tumor was confirmed
same,intracellular localization,[3],transfer to a nucleus and bind to a chromosome DNA
same,intracellular localization,[4],transfer to a nucleus and bind to a chromosome DNA
same,intracellular localization,[5],transfer to a nucleus and bind to a chromosome DNA
same,cell-death in the culture,[6]; day 3,not detected
same,cell-death in the culture,[6]; day 9,detected
same,intracellular localization,[6]; day 3,present at a cytoplasm
same,intracellular localization,[6]; day 9,transferred to a nucleus and bound to a chromosome DNA
